{"source": "paper PMC11868595", "about": "“Safety, pharmacokinetics and efficacy of HA121-28 in patients with advanced solid tumors and RET fusion-positive non-small-cell lung cancer: a multicenter, open-label, single-arm phase 1/2 trial” (Signal Transduction and Targeted Therapy, 2025)", "system": "patients with advanced solid tumors", "test": "Phase 1 trial: adverse events (CTCAE), DLT and MTD", "format": "in vivo, human", "method": "The phase 1 trial was a two-part, multicenter, open-label, nonrandomized study to evaluate the safety and preliminary efficacy of HA121-28.\nSafety, tolerability, and PK of HA121-28 was assessed in dose-escalation part. The single-patient accelerated titration was carried out at 25 mg and 50 mg; then, the dose escalation proceeded according to a “3 + 3” design in dose range of 100 to 800 mg. Escalation to a higher dose level was considered by the satisfactory review of safety results from the previous lower dose during the first cycle.\nThe dose-expansion part aims to further access the safety and efficacy of HA121-28 at the selected doses based on data from the dose-escalation part. The RP2D was determined by investigators in view of a thorough review of safety, PK, and efficacy results.\nIn phase 1 trial, during the dose-escalation part, patients first administered HA121-28 in a single ascending dose under the fasted state, then followed up for seven days. Then, patients received ascending doses of HA121-28 (q.d.) on a 21-day on and 7-day off treatment scheme for a 28-day cycle. For patients deemed beneficial from the treatment by investigators, treatment could remain until disease progression, or they discontinued from the study. In the dose-expansion part of phase 1, as well as phase 2, patients received HA121-28 (q.d.) at the selected doses on a 21-day on and 7-day off treatment scheme until disease progression, or they discontinued from the study.\nTreatment-emergent adverse events (TEAEs) were documented during the entire study period. The predefined adverse event of special interest (AESI) was ≥ grade 3 prolonged QT interval. Tumor imaging was performed using contrast-enhanced computed tomography or magnetic resonance imaging at screening, Day 28 of the first cycle, then approximately every eight weeks till the end of the study for phase 1; in phase 2, imaging was scheduled at screening, and every eight weeks during the first 40 weeks, followed by every 12 weeks for the rest of the study period. RECIST 1.1 was used by the independent review committee or investigators for assessment of tumor response. After the original assessment, a repeated assessment was required around four weeks later to confirm a complete or partial response.\nThe primary endpoints of phase 1 were to investigate the MTD, dose-limiting toxicities, and the incidence and severity of TEAEs. Each TEAE was graded according to the Common Terminology Criteria for Adverse Events (CTCAE, version 5.0) and coded by Medical Dictionary for Regulatory Activities (MedDRA, version 21.0). The secondary endpoints included calculating PK parameters, assessing the ORR and DCR at the recommended dose by investigators as per RECIST 1.1. The exploratory endpoint was PFS.\nIf grade 2 or higher toxicity related to the study drug occurs in Groups 1 and 2 (as determined by the investigator), dose escalation will proceed using a 3+3 design starting from that dose level. If no DLT is observed at the 800 mg/d dose level after dose escalation, a meeting of investigators will be convened to decide whether to proceed with further dose escalation based on the available PK data, safety, and tolerability information.\n5. Definition of DLT and MTD\nThe following events related to the study drug (including those that are definitely related, highly likely to be related, and possibly related):\n(1) Grade 4 hematologic toxicity or grade 3 neutropenia accompanied by a fever of 38.5℃ or higher, or grade 3 thrombocytopenia accompanied by severe bleeding.\n(2) Patients who discontinued the medication for more than 7 days due to unresolved toxicity reactions or who discontinued the medication more than twice due to toxicity […]\n(3) In the context of supportive treatment, diarrhea of grade 2 lasting more than 7 days, or grade 3 diarrhea lasting more than 3 days.", "data": [{"smiles": "COc1cc2c(Nc3ccc(Br)cc3F)ncnc2cc1OCCCCN(C)C.Cl.Cl", "note": "[HA121-28, N-(4-bromo-2-fluorophenyl)-7-(4-(dimethylamino)butoxy)-6-methoxy quinazolin-4-amine dihydrochloride]", "values": [{"measurement": "incidence of ≥ grade-3 TEAEs", "setting": "450 mg/day", "value": 36.7, "unit": "%"}, {"measurement": "incidence of ≥ grade-3 TEAEs", "setting": "600 mg/day", "value": 68.8, "unit": "%"}, {"measurement": "patients with dose-limiting toxicities", "setting": "800 mg (q.d.), grade-3 decreased appetite, grade-3 prolonged QT interval", "value": "two"}, {"measurement": "Serious TEAE: ALT increased", "setting": "Phase 1, 300 mg (N=4)", "value": "0 No. (%)"}, {"measurement": "Serious TEAE: AST increased", "setting": "Phase 1, 300 mg (N=4)", "value": "0 No. (%)"}, {"measurement": "Serious TEAE: Abdominal Pain", "setting": "Phase 1, 300 mg (N=4)", "value": "0 No. (%)"}, {"measurement": "Serious TEAE: Abdominal distension", "setting": "Phase 1, 300 mg (N=4)", "value": "0 No. (%)"}, {"measurement": "Serious TEAE: Acute cholecystitis", "setting": "Phase 1, 300 mg (N=4)", "value": "0 No. (%)"}, {"measurement": "Serious TEAE: Acute pancreatitis", "setting": "Phase 1, 300 mg (N=4)", "value": "0 No. (%)"}, {"measurement": "Serious TEAE: Anal abscess", "setting": "Phase 1, 300 mg (N=4)", "value": "0 No. (%)"}, {"measurement": "Serious TEAE: Any", "setting": "Phase 1, 300 mg (N=4)", "value": "1 (25.0) No. (%)"}, {"measurement": "Serious TEAE: Aortic intramural hematoma", "setting": "Phase 1, 300 mg (N=4)", "value": "1 (25.0) No. (%)"}, {"measurement": "Serious TEAE: Arrhythmia", "setting": "Phase 1, 300 mg (N=4)", "value": "0 No. (%)"}, {"measurement": "Serious TEAE: Blood bilirubin increased", "setting": "Phase 1, 300 mg (N=4)", "value": "0 No. (%)"}, {"measurement": "Serious TEAE: Blood creatinine increased", "setting": "Phase 1, 300 mg (N=4)", "value": "0 No. (%)"}, {"measurement": "Serious TEAE: COVID-19", "setting": "Phase 1, 300 mg (N=4)", "value": "0 No. (%)"}, {"measurement": "Serious TEAE: Cardiac tamponade", "setting": "Phase 1, 300 mg (N=4)", "value": "0 No. (%)"}, {"measurement": "Serious TEAE: Coronary artery atherosclerosis", "setting": "Phase 1, 300 mg (N=4)", "value": "0 No. (%)"}, {"measurement": "Serious TEAE: Death", "setting": "Phase 1, 300 mg (N=4)", "value": "0 No. (%)"}, {"measurement": "Serious TEAE: Diarrhea", "setting": "Phase 1, 300 mg (N=4)", "value": "0 No. (%)"}, {"measurement": "Serious TEAE: Drug eruption", "setting": "Phase 1, 300 mg (N=4)", "value": "0 No. (%)"}, {"measurement": "Serious TEAE: Dyspnea", "setting": "Phase 1, 300 mg (N=4)", "value": "0 No. (%)"}, {"measurement": "Serious TEAE: Embolism", "setting": "Phase 1, 300 mg (N=4)", "value": "0 No. (%)"}, {"measurement": "Serious TEAE: Erythema multiforme", "setting": "Phase 1, 300 mg (N=4)", "value": "0 No. (%)"}, {"measurement": "Serious TEAE: Headache", "setting": "Phase 1, 300 mg (N=4)", "value": "0 No. (%)"}, {"measurement": "Serious TEAE: Hemoptysis", "setting": "Phase 1, 300 mg (N=4)", "value": "0 No. (%)"}, {"measurement": "Serious TEAE: Hydronephrosis", "setting": "Phase 1, 300 mg (N=4)", "value": "0 No. (%)"}, {"measurement": "Serious TEAE: Hypertension", "setting": "Phase 1, 300 mg (N=4)", "value": "0 No. (%)"}, {"measurement": "Serious TEAE: Hypoalbuminemia", "setting": "Phase 1, 300 mg (N=4)", "value": "0 No. (%)"}, {"measurement": "Serious TEAE: Intestinal obstruction", "setting": "Phase 1, 300 mg (N=4)", "value": "0 No. (%)"}, {"measurement": "Serious TEAE: Intra-abdominal fluid collection", "setting": "Phase 1, 300 mg (N=4)", "value": "0 No. (%)"}, {"measurement": "Serious TEAE: Intracranial tumor hemorrhage", "setting": "Phase 1, 300 mg (N=4)", "value": "0 No. (%)"}, {"measurement": "Serious TEAE: Liver injury", "setting": "Phase 1, 300 mg (N=4)", "value": "0 No. (%)"}, {"measurement": "Serious TEAE: Lung adenocarcinoma", "setting": "Phase 1, 300 mg (N=4)", "value": "0 No. (%)"}, {"measurement": "Serious TEAE: Malignant neoplasm progression", "setting": "Phase 1, 300 mg (N=4)", "value": "0 No. (%)"}, {"measurement": "Serious TEAE: Multiple organ dysfunction syndrome", "setting": "Phase 1, 300 mg (N=4)", "value": "0 No. (%)"}, {"measurement": "Serious TEAE: Nausea", "setting": "Phase 1, 300 mg (N=4)", "value": "0 No. (%)"}, {"measurement": "Serious TEAE: Nephrolithiasis", "setting": "Phase 1, 300 mg (N=4)", "value": "0 No. (%)"}, {"measurement": "Serious TEAE: Platelet counts decreased", "setting": "Phase 1, 300 mg (N=4)", "value": "0 No. (%)"}, {"measurement": "Serious TEAE: Pleural effusion", "setting": "Phase 1, 300 mg (N=4)", "value": "0 No. (%)"}, {"measurement": "Serious TEAE: Pneumonia", "setting": "Phase 1, 300 mg (N=4)", "value": "0 No. (%)"}, {"measurement": "Serious TEAE: Pneumonitis", "setting": "Phase 1, 300 mg (N=4)", "value": "0 No. (%)"}, {"measurement": "Serious TEAE: Prolonged QT interval", "setting": "Phase 1, 300 mg (N=4)", "value": "0 No. (%)"}, {"measurement": "Serious TEAE: Pulmonary embolism", "setting": "Phase 1, 300 mg (N=4)", "value": "0 No. (%)"}, {"measurement": "Serious TEAE: Pyrexia", "setting": "Phase 1, 300 mg (N=4)", "value": "0 No. (%)"}, {"measurement": "Serious TEAE: Rash", "setting": "Phase 1, 300 mg (N=4)", "value": "0 No. (%)"}, {"measurement": "Serious TEAE: Rectal hemorrhage", "setting": "Phase 1, 300 mg (N=4)", "value": "0 No. (%)"}, {"measurement": "Serious TEAE: Respiratory failure", "setting": "Phase 1, 300 mg (N=4)", "value": "0 No. (%)"}, {"measurement": "Serious TEAE: Seizure", "setting": "Phase 1, 300 mg (N=4)", "value": "0 No. (%)"}, {"measurement": "Serious TEAE: Septic shock", "setting": "Phase 1, 300 mg (N=4)", "value": "0 No. (%)"}, {"measurement": "Serious TEAE: Sudden cardiac arrest", "setting": "Phase 1, 300 mg (N=4)", "value": "0 No. (%)"}, {"measurement": "Serious TEAE: Sudden death", "setting": "Phase 1, 300 mg (N=4)", "value": "0 No. (%)"}, {"measurement": "Serious TEAE: Upper respiratory tract infection", "setting": "Phase 1, 300 mg (N=4)", "value": "0 No. (%)"}, {"measurement": "Serious TEAE: Ventricular tachycardia", "setting": "Phase 1, 300 mg (N=4)", "value": "0 No. (%)"}, {"measurement": "Serious TEAE: Vomiting", "setting": "Phase 1, 300 mg (N=4)", "value": "0 No. (%)"}, {"measurement": "Serious TEAE: Weight loss", "setting": "Phase 1, 300 mg (N=4)", "value": "0 No. (%)"}, {"measurement": "Serious TRAE: ALT increased", "setting": "Phase 1, 300 mg (N=4)", "value": "0 No. (%)"}]}]}
